Data reported in patent US20240100170A1, “CYCLIC-AMP RESPONSE ELEMENT BINDING PROTEIN (CBP) AND/OR ADENOVIRAL E1A BINDING PROTEIN OF 300 KDA (P300) DEGRADATION COMPOUNDS AND METHODS OF USE” (CULLGEN (SHANGHAI), INC., priority 2020, published 2024).
Read-outs that look alike come from different tables or passages of the source.

Experiments:
[1] = system: LNCaP prostate cancer cell; experiment: LNCaP cell viability (CellTiter-Glo); type: cell-based; details: Homo sapiens, 72 h, LNCaP cell viability, 3 days, CellTiter-Glo
Summary of the method: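 CellTiter-Glo luminescence measured three days after dosing with a 12-point 3-fold compound dilution series. LNCaP cells seeded at 5000/well in RPMI 1640 with 10% FBS; data normalized to untreated controls and IC50 fitted by nonlinear least-squares regression.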

[2] = biological target: P300 (Homo sapiens, UniProt Q09472); experiment: percentage of inhibition (degradation) of p300 at 10 nM, Tables 2-4; type: cell-based; parameters: LNCaP or 22RV1 cells that express CBP/P300 proteins were treated with GNE-781 or the bivalent compounds; endogenous in cells; host or cells: LNCaP or 22RV1 (not given); details: for inhibition at 0.01 µM: read-out: Degradation (10 nM)
Summary of the method: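 Degradation was measured at 10 nM. Cells or tissue were lysed in RIPA with protease and phosphatase inhibitors for 30 min at 4 °C and cleared, and protein was quantified by BCA. Lysates were resolved by SDS-PAGE, detected by chemiluminescent immunoblot, and bands were quantified by densitometry.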

Sequence of P300 (Q09472 whole entry): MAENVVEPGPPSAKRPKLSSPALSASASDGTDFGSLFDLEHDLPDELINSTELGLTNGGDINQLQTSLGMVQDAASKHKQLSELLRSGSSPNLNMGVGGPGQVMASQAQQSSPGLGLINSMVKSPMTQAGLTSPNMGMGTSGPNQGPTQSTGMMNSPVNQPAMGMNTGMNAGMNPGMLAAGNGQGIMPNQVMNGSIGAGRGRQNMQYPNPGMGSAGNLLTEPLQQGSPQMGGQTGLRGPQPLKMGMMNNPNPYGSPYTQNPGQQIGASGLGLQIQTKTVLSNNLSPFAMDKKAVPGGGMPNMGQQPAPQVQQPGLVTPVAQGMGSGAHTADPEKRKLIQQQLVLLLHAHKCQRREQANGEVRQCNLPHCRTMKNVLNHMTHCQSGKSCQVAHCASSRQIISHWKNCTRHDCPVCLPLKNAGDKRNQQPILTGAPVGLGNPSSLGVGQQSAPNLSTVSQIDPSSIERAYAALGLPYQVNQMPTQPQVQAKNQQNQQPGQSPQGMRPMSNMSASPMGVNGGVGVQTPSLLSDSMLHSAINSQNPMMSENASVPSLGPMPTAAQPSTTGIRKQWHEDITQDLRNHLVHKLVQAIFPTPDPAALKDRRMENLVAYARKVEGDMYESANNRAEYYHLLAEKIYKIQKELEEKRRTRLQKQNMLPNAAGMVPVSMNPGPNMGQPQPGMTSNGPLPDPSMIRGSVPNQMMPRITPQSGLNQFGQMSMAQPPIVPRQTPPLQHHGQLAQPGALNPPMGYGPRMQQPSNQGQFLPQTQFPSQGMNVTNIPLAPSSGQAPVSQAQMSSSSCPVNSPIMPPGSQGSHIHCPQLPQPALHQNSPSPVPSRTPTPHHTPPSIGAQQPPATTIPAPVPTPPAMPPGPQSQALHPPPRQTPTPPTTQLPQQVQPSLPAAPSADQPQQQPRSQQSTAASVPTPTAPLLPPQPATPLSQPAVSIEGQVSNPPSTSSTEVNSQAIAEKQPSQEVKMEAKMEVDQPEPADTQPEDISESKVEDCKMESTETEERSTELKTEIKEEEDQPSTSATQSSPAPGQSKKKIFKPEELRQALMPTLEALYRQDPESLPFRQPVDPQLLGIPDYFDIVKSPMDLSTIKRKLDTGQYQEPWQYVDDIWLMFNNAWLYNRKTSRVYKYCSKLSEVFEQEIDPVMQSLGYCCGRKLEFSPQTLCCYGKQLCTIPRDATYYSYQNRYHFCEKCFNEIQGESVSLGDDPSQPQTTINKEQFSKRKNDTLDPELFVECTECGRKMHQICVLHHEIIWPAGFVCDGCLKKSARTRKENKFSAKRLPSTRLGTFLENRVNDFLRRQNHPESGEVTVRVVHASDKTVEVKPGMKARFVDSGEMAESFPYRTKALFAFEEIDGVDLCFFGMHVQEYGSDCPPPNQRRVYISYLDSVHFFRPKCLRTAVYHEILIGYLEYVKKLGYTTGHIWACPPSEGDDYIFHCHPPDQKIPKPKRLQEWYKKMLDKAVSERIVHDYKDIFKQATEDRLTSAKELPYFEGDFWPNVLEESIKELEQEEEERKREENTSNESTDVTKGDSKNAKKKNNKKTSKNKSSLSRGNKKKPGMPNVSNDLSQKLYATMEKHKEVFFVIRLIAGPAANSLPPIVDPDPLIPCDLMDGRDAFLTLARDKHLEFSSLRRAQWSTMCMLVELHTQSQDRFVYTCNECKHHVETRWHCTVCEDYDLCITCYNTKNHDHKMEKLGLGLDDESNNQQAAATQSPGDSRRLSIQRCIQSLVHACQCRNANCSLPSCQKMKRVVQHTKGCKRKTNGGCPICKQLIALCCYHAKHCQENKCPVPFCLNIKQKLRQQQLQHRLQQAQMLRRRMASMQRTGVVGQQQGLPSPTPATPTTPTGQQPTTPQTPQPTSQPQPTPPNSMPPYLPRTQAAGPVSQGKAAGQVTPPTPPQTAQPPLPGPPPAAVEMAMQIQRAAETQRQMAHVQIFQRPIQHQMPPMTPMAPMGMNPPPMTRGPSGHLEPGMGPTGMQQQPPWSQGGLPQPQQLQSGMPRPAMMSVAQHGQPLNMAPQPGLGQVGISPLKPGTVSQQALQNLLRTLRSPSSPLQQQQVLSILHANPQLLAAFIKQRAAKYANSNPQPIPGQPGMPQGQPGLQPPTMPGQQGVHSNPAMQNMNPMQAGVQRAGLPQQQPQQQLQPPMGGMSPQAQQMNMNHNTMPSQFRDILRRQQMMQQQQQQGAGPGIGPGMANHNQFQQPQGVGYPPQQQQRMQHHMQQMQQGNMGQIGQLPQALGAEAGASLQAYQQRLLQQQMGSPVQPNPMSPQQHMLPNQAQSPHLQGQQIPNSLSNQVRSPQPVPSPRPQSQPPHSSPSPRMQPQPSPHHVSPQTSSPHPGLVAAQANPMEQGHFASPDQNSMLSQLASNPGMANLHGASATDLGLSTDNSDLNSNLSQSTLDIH

Structure (SMILES) | IC50 ([1]; Table 4) | inhibition at 0.01 µM ([2]; p300, 10 nM, Table 4) | inhibition at 0.01 µM [2] | IC50 ([1]; Table 3) | Degradation (10 nM) ([2]; p300, 10 nM, Table 3)
CC(=O)N1CCc2c(c(N3CCCc4cc(-c5cnn(C)c5)c(C(F)F)cc43)nn2C2CCN(C(=O)CCCN3CCC(C#Cc4cccc5c4ccn5C4CCC(=O)NC4=O)CC3)CC2)C1 (stereo not shown) [P-223, 3-(4-((1-(4-(4-(5-Acetyl-3-(7-(difluoromethyl)-6-(1-methyl-1H-pyrazol-4-yl)-3,4-dihydroquinolin-1(2H)-yl)-4,5,6,7-tetrahydro-1H-pyrazolo[4,3-c]pyridin-1-yl)piperidin-1-yl)-4-oxobutyl)piperidin-4-yl)ethynyl)-1H-indol-1-yl)piperidine-2,6-dione] | 43.7 nM | 50 to 80% | – | – | –
CC(=O)N1CCc2c(c(N3CCCc4cc(-c5cnn(C)c5)c(C(F)F)cc43)nn2C2CCN(C(=O)CCN3CCC(CCc4cccc5c4n(C)c(=O)n5C4CCC(=O)NC4=O)CC3)CC2)C1 (stereo not shown) [P-232, 3-(4-(2-(1-(3-(4-(5-Acetyl-3-(7-(difluoromethyl)-6-(1-methyl-1H-pyrazol-4-yl)-3,4-dihydroquinolin-1(2H)-yl)-4,5,6,7-tetrahydro-1H-pyrazolo[4,3-c]pyridin-1-yl)piperidin-1-yl)-3-oxopropyl)piperidin-4-yl)ethyl)-3-methyl-2-oxo-2,3-dihydro-1H-benzo[d]imidazol-1-yl)piperidine-2,6-dione] | 12.9 nM | > 80% | – | – | –
CC(=O)N1CCc2c(c(N3CCCc4cc(-c5cnn(C)c5)c(C(F)F)cc43)nn2C2CCN(C(=O)CN3CCN(CCCc4ccc5c(c4)n(C)c(=O)n5C4CCC(=O)NC4=O)CC3)CC2)C1 (stereo not shown) [P-220, 3-(5-(3-(4-(2-(4-(5-Acetyl-3-(7-(difluoromethyl)-6-(1-methyl-1H-pyrazol-4-yl)-3,4-dihydroquinolin-1(2H)-yl)-4,5,6,7-tetrahydro-1H-pyrazolo[4,3-c]pyridin-1-yl)piperidin-1-yl)-2-oxoethyl)piperazin-1-yl)propyl)-3-methyl-2-oxo-2,3-dihydro-1H-benzo[d]imidazol-1-yl)piperidine-2,6-dione] | 15.5 nM | 50 to 80% | – | – | –
CC(=O)N1CCc2c(c(N3CCCc4cc(-c5cnn(C)c5)c(C(F)F)cc43)nn2C2CCN(C(=O)CCCN3CCN(Cc4ccc5c(c4)n(C)c(=O)n5C4CCC(=O)NC4=O)CC3)CC2)C1 (stereo not shown) [P-215, 3-(5-((4-(4-(4-(5-Acetyl-3-(7-(difluoromethyl)-6-(1-methyl-1H-pyrazol-4-yl)-3,4-dihydroquinolin-1(2H)-yl)-4,5,6,7-tetrahydro-1H-pyrazolo[4,3-c]pyridin-1-yl)piperidin-1-yl)-4-oxobutyl)piperazin-1-yl)methyl)-3-methyl-2-oxo-2,3-dihydro-1H-benzo[d]imidazol-1-yl)piperidine-2,6-dione] | 33.1 nM | 20 to 50% | – | – | –
CC(=O)N1CCc2c(c(N3CCCc4cc(-c5cnn(C)c5)c(C(F)F)cc43)nn2C2CCN(C(=O)CCCCCCCCCC(=O)Nc3cccc(NC4CCC(=O)NC4=O)c3)CC2)C1 (stereo not shown) [P-265, 11-(4-(5-Acetyl-3-(7-(difluoromethyl)-6-(1-methyl-1H-pyrazol-4-yl)-3,4-dihydroquinolin-1(2H)-yl)-4,5,6,7-tetrahydro-1H-pyrazolo[4,3-c]pyridin-1-yl)piperidin-1-yl)-N-(3-((2,6-dioxopiperidin-3-yl)amino)phenyl)-11-oxoundecanamide] | 592 nM | < 20% | – | – | –
CC(=O)N1CCc2c(c(N3CCCc4cc(-c5cnn(C)c5)c(C(F)F)cc43)nn2C2CCN(CCCN3CCC(Cn4c(=O)n(C5CCC(=O)NC5=O)c5ccccc54)CC3)CC2)C1 (stereo not shown) [P-235, 3-(3-((1-(3-(4-(5-Acetyl-3-(7-(difluoromethyl)-6-(1-methyl-1H-pyrazol-4-yl)-3,4-dihydroquinolin-1(2H)-yl)-4,5,6,7-tetrahydro-1H-pyrazolo[4,3-c]pyridin-1-yl)piperidin-1-yl)propyl)piperidin-4-yl)methyl)-2-oxo-2,3-dihydro-1H-benzo[d]imidazol-1-yl)piperidine-2,6-dione] | 844 nM | < 20% | – | – | –
CC(=O)N1CCc2c(c(N3CCCc4cc(-c5cnn(C)c5)c(C(F)F)cc43)nn2C2CCN(C(=O)CN3CCC(C#Cc4cccc5c4n(C)c(=O)n5C4CCC(=O)NC4=O)CC3)CC2)C1 (stereo not shown) [P-227, 3-(4-((1-(2-(4-(5-acetyl-3-(7-(difluoromethyl)-6-(1-methyl-1H-pyrazol-4-yl)-3,4-dihydroquinolin-1(2H)-yl)-4,5,6,7-tetrahydro-1H-pyrazolo[4,3-c]pyridin-1-yl)piperidin-1-yl)-2-oxoethyl)piperidin-4-yl)ethynyl)-3-methyl-2-oxo-2,3-dihydro-1H-benzo[d]imidazol-1-yl)piperidine-2,6-dione] | 1.8 nM | > 80% | – | – | –
CC(=O)N1CCc2c(c(N3CCCc4cc(-c5cnn(C)c5)c(C(F)F)cc43)nn2C2CCN(CCN3CCC(CCc4cccc5c4n(C)c(=O)n5C4CCC(=O)NC4=O)CC3)CC2)C1 (stereo not shown) [P-252, 3-(4-(2-(1-(2-(4-(5-acetyl-3-(7-(difluoromethyl)-6-(1-methyl-1H-pyrazol-4-yl)-3,4-dihydroquinolin-1(2H)-yl)-4,5,6,7-tetrahydro-1H-pyrazolo[4,3-c]pyridin-1-yl)piperidin-1-yl)ethyl)piperidin-4-yl)ethyl)-3-methyl-2-oxo-2,3-dihydro-1H-benzo[d]imidazol-1-yl)piperidine-2,6-dione] | 0.1 nM | – | > 80% | – | –
CC(=O)N1CCc2c(c(N3CCCc4cc(-c5cnn(C)c5)c(C(F)F)cc43)nn2C2CCN(C(=O)CCCN3CCC(CNc4ccc5c(c4)n(C)c(=O)n5C4CCC(=O)NC4=O)CC3)CC2)C1 (stereo not shown) [P-217, 3-(5-(((1-(4-(4-(5-Acetyl-3-(7-(difluoromethyl)-6-(1-methyl-1H-pyrazol-4-yl)-3,4-dihydroquinolin-1(2H)-yl)-4,5,6,7-tetrahydro-1H-pyrazolo[4,3-c]pyridin-1-yl)piperidin-1-yl)-4-oxobutyl)piperidin-4-yl)methyl)amino)-3-methyl-2-oxo-2,3-dihydro-1H-benzo[d]imidazol-1-yl)piperidine-2,6-dione] | 21.6 nM | 50 to 80% | – | – | –
CC(=O)N1CCc2c(c(N3CCCc4cc(-c5cnn(C)c5)c(C(F)F)cc43)nn2C2CCN(C(=O)CCN3CCC(Cn4c(=O)n(C5CCC(=O)NC5=O)c5ccccc54)CC3)CC2)C1 (stereo not shown) [P-205, 3-(3-((1-(3-(4-(5-acetyl-3-(7-(difluoromethyl)-6-(1-methyl-1H-pyrazol-4-yl)-3,4-dihydroquinolin-1(2H)-yl)-4,5,6,7-tetrahydro-1H-pyrazolo[4,3-c]pyridin-1-yl)piperidin-1-yl)-3-oxopropyl)piperidin-4-yl)methyl)-2-oxo-2,3-dihydro-1H-benzo[d]imidazol-1-yl)piperidine-2,6-dione] | 158 nM | < 20% | – | – | –
CC(=O)N1CCc2c(c(N3CCCc4cc(-c5cnn(C)c5)c(C(F)F)cc43)nn2C2CCN(C(=O)CCCCCCNc3ccc(C(=O)NC4CCC(=O)NC4=O)c4ncccc34)CC2)C1 (stereo not shown) [P-240, 5-((7-(4-(5-acetyl-3-(7-(difluoromethyl)-6-(1-methyl-1H-pyrazol-4-yl)-3,4-dihydroquinolin-1(2H)-yl)-4,5,6,7-tetrahydro-1H-pyrazolo[4,3-c]pyridin-1-yl)piperidin-1-yl)-7-oxoheptyl)amino)-N-(2,6-dioxopiperidin-3-yl)quinoline-8-carboxamide] | 1.4 nM | > 80% | – | – | –
CC(=O)N1CCc2c(c(N3CCCc4cc(-c5cnn(C)c5)c(C(F)F)cc43)nn2C2CCN(CCCN3CCN(c4cccc5c4C(=O)N(C4CCC(=O)NC4=O)C5=O)CC3)CC2)C1 (stereo not shown) [P-247, 4-(4-(3-(4-(5-Acetyl-3-(7-(difluoromethyl)-6-(1-methyl-1H-pyrazol-4-yl)-3,4-dihydroquinolin-1(2H)-yl)-4,5,6,7-tetrahydro-1H-pyrazolo[4,3-c]pyridin-1-yl)piperidin-1-yl)propyl)piperazin-1-yl)-2-(2,6-dioxopiperidin-3-yl)isoindoline-1,3-dione] | > 500 nM | < 20% | – | – | –
CC(=O)N1CCc2c(c(N3CCCc4cc(-c5cnn(C)c5)c(C(F)F)cc43)nn2C2CCN(C(=O)CCCCCCCn3c(=O)n(C4CCC(=O)NC4=O)c4ccccc43)CC2)C1 (stereo not shown) [P-135, 3-(3-(8-(4-(5-acetyl-3-(7-(difluoromethyl)-6-(1-methyl-1H-pyrazol-4-yl)-3,4-dihydroquinolin-1(2H)-yl)-4,5,6,7-tetrahydro-1H-pyrazolo[4,3-c]pyridin-1-yl)piperidin-1-yl)-8-oxooctyl)-2-oxo-2,3-dihydro-1H-benzo[d]imidazol-1-yl)piperidine-2,6-dione] | – | – | – | 0.7 nM | A (A: Degradation ≥ 80%)
CC(=O)N1CCc2c(c(N3CCCc4cc(-c5cnn(C)c5)c(C(F)F)cc43)nn2C2CCN(C(=O)CCCN3CCC(CNc4cccc5c4n(C)c(=O)n5C4CCC(=O)NC4=O)CC3)CC2)C1 (stereo not shown) [P-214, 3-(4-(((1-(4-(4-(5-Acetyl-3-(7-(difluoromethyl)-6-(1-methyl-1H-pyrazol-4-yl)-3,4-dihydroquinolin-1(2H)-yl)-4,5,6,7-tetrahydro-1H-pyrazolo[4,3-c]pyridin-1-yl)piperidin-1-yl)-4-oxobutyl)piperidin-4-yl)methyl)amino)-3-methyl-2-oxo-2,3-dihydro-1H-benzo[d]imidazol-1-yl)piperidine-2,6-dione] | 51.2 nM | 20 to 50% | – | – | –
